Patent publication US20220347279A1, “VCX/Y PEPTIDES AND USE THEREOF” (BOARD OF REGENTS, THE UNIVERSITY OF TEXAS SYSTEM, priority 2019, published 2022)

What was measured:
Type in all cases: cell-based
VCX54 TCR-T cells [1] = experiment: Overlap peptide library screening: peptide-pulsed T2 cells co-cultured with VCX54 TCR-T, ICS of activation markers; conditions: peptide pulsed to T2 cells, overnight co-culture
Description: Overlap peptide library screening was performed for the recognition target peptide of VCX54 TCR-T cells (FIG. 1). The 9-mer peptide with 8 amino acid overlap peptide library covering the whole length of VCX3A protein was screened for the VCX54 TCR-T cell recognized target. The peptide was pulsed to T2 cell one by one and co-cultured with VCX54 TCR-T. After overnight culturing, the activated marker of T cells such as CD137, CD69, IFN-r and TNFa were detected using intracellular cytokine staining (ICS).
(§1) Intracellular cytokine staining (ICS) assay: The T cells were incubated with target cells at 10:1 ration in the presence of brefeldin A (BFA) at 37° C. overnight. After co-culturing, the T cells were harvested and washed. The cells were stained with flow antibody anti surface marker first. After that, the cells were washed and fixed with Fix Buffer and then were permeabilized using Permeabilizing Solution (eBioscience). Permeabilized cells are then stained with intracellular cytokine flow antibody. Finally, the level of cytokine producing in the cells was analyzed using FACS.

VCX54 TCR-T cells [2] = experiment: Peptide titration killing assay (calcein-AM quenching assay); conditions: peptide-pulsed T2 cells labeled with Calcein-AM, high concentrations
Source text: Different concentrations of VCX118 peptide were pulsed to T2 cells, labeled with Calcein-AM, and co-cultured with VCX54 TCR-T cells. The calcein-AM quenching assay was used to detect VCX54 TCR-T killing ability in response to the antigen.

VCX54 TCR-T cells [3] = experiment: VCX118 peptide cross reaction detection (peptide titration on T2 cells, ICS); conditions: T2 cells pulsed with high concentration of peptide
Description: For VCX118 peptide cross reaction detection, different concentration of VCX118 peptide were used to pulse T2 cells and then co-cultured with VCX54 TCR-T cells. […] M26 peptide was used as a negative control (FIG. 2).
as §1

HLA-A2 = biological target: T1, HLA-A2 (Homo sapiens, UniProt P04439, D140Y/D185E/D98H/E176V/E277Q/G131W/G231S/I119V/I121R/I166T/I218V/L300P/L318F/N151K/N90K/P208A/P217A/Q86G/Q94H/R138H/R169H/T345S); experiment: VCX118 peptide HLA-A2 binding assay (HLA-A2 stability analysis on T2 cells); conditions: T2 cells pulsed with different concentrations of peptide
T1 construct: endogenous in cells; host or cells: T2 cells
Description: Different concentrations of VCX118 peptide were pulsed to T2 cells, and the HLA-A2 stability analysis was performed to detect the VCX118 peptide binding ability. VCX54, M26 and M27 peptide were used as control.

VCX54 TCR-T cells [4] = experiment: VCX54 TCR-T recognition of longer peptides comprising VCX118 (ICS); conditions: peptides pulsed to T2 cells, co-cultured with VCX54 TCR-T cells
Description: Different length of peptides with VCX118 were pulsed to T2 cells and co-cultured with VCX54 TCR-T cells. The VCX118 peptide was used as a control.
as §1

Row | binding ability to HLA-A2 (HLA-A2) | Substance | induction of response of VCX54 TCR-T (CD137, CD69, IFN-r, TNFa by ICS) (VCX54 TCR-T cells [1]) | VCX54 TCR-T killing response relative to VCX54 peptide (VCX54 TCR-T cells [2]) | ICS response relative to VCX54 original peptide (VCX54 TCR-T cells [3]) | cross recognition by VCX54 TCR-T (ICS) (VCX54 TCR-T cells [3]) | recognition by VCX54 TCR-T cells (ICS) (VCX54 TCR-T cells [4])
1 |  | VCX54: the target (original) 9-mer peptide of VCX3A recognized by VCX54 TCR-T cells; sequence not printed (GAATKMAAV) [reference compound] | able to induce the response of VCX54 TCR-T |  |  |  | 
2 | weak binding ability | SEVEEPLSQ (listed as Homo sapiens) [VCX118, 9-mer VCX/Y peptide shared with all VCX/Y family members] | also be able to induce the response of VCX54 TCR-T cells | higher than the VCX54 peptide | higher than the VCX54 original peptide | cross recognized by VCX54 TCR-T | only recognized the VCX118 peptide
